Source: US8901294B2, “MRI contrast agent having gadolinium complex” (priority 2010, dated 2014)
Entries after “also recorded” stand apart in the source; their conditions may differ. Like-named read-outs stand apart in the source and are kept apart here. Each block holds one compound with its values, some of them ahead of it.

Legend:
[1] = ICP measurement of Gd(III) ion concentration in organs with time; assay type: in vivo, mice; parameters: unit not given here
Description: (§1) To study the contrasting effect of the MRI contrast agent according to the present invention, six-week-old male ICR mice (weight=29-31 g) were used for the in vivo study. The mice were anesthetized by 1.5% isoflurane in oxygen and treated with gadolinium complex (5c) of the present invention at amount of 0.1 mmol of Gd/kg. After the treatment, the mouse was revived from anesthesia and placed in the cage with free access to food and water. The animals were maintained at approximately 37° C. using a warm water blanket.
The excretion via the bile duct was further confirmed by measuring the concentration of Gd(III) ions with time through inductively coupled plasma (ICP) measurement. At 6 h after the injection, the Gd(III) ions were detected in the intestine, confirming that they are excreted via the liver and the bile duct.

ICR mice = assay: In vivo MRI test; conditions: 0.1 mmol of Gd/kg
Description: as §1
MR images were taken with 1.5 T (GE Healthcare, Milwaukee, Wis., USA) equipped with a homemade small animal RF coil. The coil was of the receiver type with its inner diameter being 50 mm. The imaging parameters for 3D fast SPGR (spoiled GRASS images) are as follows: repetition time (TR)=8.8 ms; echo time (TE)=3.9 ms; 10 mm field of view (FOV); 256×192 matrix size; 1.0 mm slice thickness; number of acquisition (NEX)=4. The imaging parameters for spin-echo are as follows: TR=500 ms; TE=13 ms; 6 mm FOV; 192×128 matrix size; 1.5 mm slice thickness; NEX=4. Each image was taken with an interval of 3 min and 16 s. […] For analysis of the obtained MR images, signal intensities in specific regions of interest (ROI) were measured using Advantage Window software (GE Medical, USA). The CNR was calculated using Equation 3, where SNR is the signal-to-noise ratio. […]

[2] = Relaxation times (T1, T2) and relaxivities (R1, R2) at 1.5 T; assay type: physicochemical
Description: T1 measurements were carried out using an inversion recovery method with a variable inversion time (TI) at 1.5 T. The MR images were acquired at 35 different TI values ranging from 50 to 1750 ms. T1 relaxation times were obtained from the nonlinear least-squares fit of the signal intensity measured at each T1 value. For T2 measurements the CPMG (Carr-Purcell-Meiboon-Gill) pulse sequence was adapted for multiple spin-echo measurements. Thirty-four images were acquired with 34 different echo time (TE) values. T2 relaxation times were obtained from the nonlinear least-squares fit of the mean pixel values for the multiple spin-echo measurements at each echo time. Relaxivities were then calculated as an inverse (R=1/s·mM) of relaxation time per mM. The determined relaxation times and relaxivities are finally transformed to a phantom map. The phantom images were obtained with the same concentration of Dotarem® and gadolinium complexes or comparative purposes. […] Table 2 summarizes the relaxation times and relaxivities for gadolinium complexes of the present invention along with other Gd-complexes.

[3] = literature data, cited from earlier work; for LogK [CuL]/[Cu][L] (stability constant): 25° C., μ = 0.10M (KCl); for pCu: pM = −log[M]free at pH7.4, [M]total = 1 μmol/dm^3, [L]total = 1.1 μmol/dm^3
[4] = literature data, cited from earlier work; for LogK [ZnL]/[Zn][L] (stability constant): 25° C., μ = 0.10M (KCl); for pZn: pM = −log[M]free at pH7.4, [M]total = 1 μmol/dm^3, [L]total = 1.1 μmol/dm^3
[5] = 25° C., μ = 0.10M (KCl); literature data; cited from earlier work
[6] = literature data, cited from earlier work; for LogK [CaL]/[Ca][L] (stability constant): 25° C., μ = 0.10M (KCl)
[7] = literature data, cited from earlier work; for LogK [GdL]/[Gd][L] (stability constant): 25° C., μ = 0.10M (KCl); for logKsel(Gd/Ca) (selectivity constant): Gd over Ca; for logKsel(Gd/Cu) (selectivity constant): Gd over Cu; for logKsel(Gd/Zn) (selectivity constant): Gd over Zn; for pGd: pM = −log[M]free at pH7.4, [M]total = 1 μmol/dm^3, [L]total = 1.1 μmol/dm^3
[8] = 20 MHz, 298 K; cited from earlier work
[9] = Transmetalation kinetics: evolution of paramagnetic relaxation rate R1P(t)/R1P(0) in presence of ZnCl2; assay type: physicochemical; conditions: for pattern of evolution of the paramagnetic relaxation rate R1P(t)/R1P(0) (in words): phosphate-buffered solution pH 7.4, 2.5 mmol/L Gd-complex and 2.5 mmol/L ZnCl2, 72 hours
Excerpt: […]. The relative value of R1^P at time t, R1^P(t)/R1^P(0), is therefore a good estimate of the extent of transmetalation. The evolution of R1^P(t)/R1^P(0) over time gives relevant information about the kinetics of the reaction, whereas the plateau value theoretically reached at t=∞ will reflect the thermodynamic aspect.
Accordingly, in order to investigate the transmetalation kinetics of the gadolinium complexes according to the present invention, the evolution of water proton relaxation rate (R1^P) of a phosphate-buffered solution (pH 7.4) containing 2.5 mmol/L of Gd-complex and 2.5 mmol/L of ZnCl2 with time was measured. To measure the change in the relaxation rate, 10 μL of a ZnCl2 solution (250 mmol/L) was added to 1 mL of a buffered solution of the Gd-complex and the mixture was vigorously stirred. The same experiment was performed with Dotarem®, Omniscan®, Multihance®, Primovist® and ethyl tranexamate (6) with zinc acetate for comparison. The measurement was made on a 3T whole body system (Magnetom Tim Trip; Simens, Germany) at room temperature.

[10] = reference values from ref. 8 or 9; cited from earlier work

SMILES: C=CCOC(=O)C1CCC(CNC(=O)CN2CCN(CC(=O)[O-])CCN(CC(=O)[O-])CCN(CC(=O)[O-])CC2)CC1.O.[Gd+3] (stereo not drawn) [Compound 5c]
concentration of Gd(III) ions (ICP) ([1]; Bile duct, 6 h after injection): 13.95
concentration of Gd(III) ions (ICP) ([1]; Blood, 1 h after injection): 5.16
concentration of Gd(III) ions (ICP) ([1]; Blood, 6 h after injection): 0.12
concentration of Gd(III) ions (ICP) ([1]; Intestine, 6 h after injection): 2.485
concentration of Gd(III) ions (ICP) ([1]; Kidney, 1 h after injection): 65.17
concentration of Gd(III) ions (ICP) ([1]; Kidney, 6 h after injection): 68.22
concentration of Gd(III) ions (ICP) ([1]; Kidney, 24 h after injection): 10.89
concentration of Gd(III) ions (ICP) ([1]; Kidney, 48 h after injection): 6.91
concentration of Gd(III) ions (ICP) ([1]; Liver, 1 h after injection): 62.09
concentration of Gd(III) ions (ICP) ([1]; Liver, 6 h after injection): 50.90
concentration of Gd(III) ions (ICP) ([1]; Liver, 24 h after injection): 33.73
concentration of Gd(III) ions (ICP) ([1]; Liver, 48 h after injection): 35.90
concentration of Gd(III) ions (ICP) ([1]; Liver, 72 h after injection): 6.22
excretion pattern (MR images) (ICR mice): excreted slowly to the intestine via the bile duct through hepatobiliary uptake
MR contrasting effect in the liver (ICR mice; 1.5 T): enhances contrast of the liver
R1 value compared with commercially available contrast agents (in words) ([2]; 1.5 T): significantly higher R1 values than any of the clinically used contrast agents; also recorded: very high R1 values
R1 relaxivity ([2]; 1.5 T, mean value(±SD)): 9.5 ± 0.12 mM⁻¹ s⁻¹
R2 relaxivity ([2]; 1.5 T, mean value(±SD)): 10.9 ± 0.03 mM⁻¹ s⁻¹
T1 relaxation time ([2]; 1.5 T, mean value(±SD)): 105.28 ± 1.33 ms
T2 relaxation time ([2]; 1.5 T, mean value(±SD)): 91.74 ± 0.25 ms
R1 value relative to that of Dotarem ([2]; ratio of R1 values): 2.6 times

SMILES: O=C(O)CN1CCN(CC(=O)O)CCN(CC(=O)O)CCN(CC(=O)O)CC1 [DOTA]
LogK [CuL]/[Cu][L] (stability constant) [3]: 22.63
logKCuL(PH7.4) (conditional stability constant) [3]: 15.66
pCu [3]: 14.05
LogK [ZnL]/[Zn][L] (stability constant) [4]: 21.05
logKZnL(pH7.4) (conditional stability constant) [4]: 14.08
pZn [4]: 15.19
LogK [H2L]/[HL][H] (protonation constant) [5]: 9.68
LogK [H3L]/[H2L][H] (protonation constant) [5]: 4.55
LogK [H4L]/[H3L][H] (protonation constant) [5]: 4.13
LogK [HL]/[L][H] (protonation constant) [5]: 12.09
ΣpKa (overall basicity) [5]: 30.45
LogK [CaL]/[Ca][L] (stability constant) [6]: 17.23
logKCaL(pH7.4) (conditional stability constant) [6]: 10.26
LogK [GdL]/[Gd][L] (stability constant) [7]: 25.30
logKsel(Gd/Ca) (selectivity constant) [7]: 8.07
logKsel(Gd/Cu) (selectivity constant) [7]: 2.67
logKsel(Gd/Zn) (selectivity constant) [7]: 4.25
logKGdL(pH7.4) (conditional stability constant) [7]: 18.33
pGd [7]: 19.2

SMILES: O=C(O)CN(CCN(CC(=O)O)CC(=O)O)CCN(CC(=O)O)CC(=O)O [DTPA]
LogK [CuL]/[Cu][L] (stability constant) [3]: 21.38
logKCuL(PH7.4) (conditional stability constant) [3]: 17.06
pCu [3]: 16.06
LogK [ZnL]/[Zn][L] (stability constant) [4]: 18.70
logKZnL(pH7.4) (conditional stability constant) [4]: 14.38
pZn [4]: 13.39
LogK [H2L]/[HL][H] (protonation constant) [5]: 8.60
LogK [H3L]/[H2L][H] (protonation constant) [5]: 4.28
LogK [H4L]/[H3L][H] (protonation constant) [5]: 2.64
LogK [HL]/[L][H] (protonation constant) [5]: 10.49
ΣpKa (overall basicity) [5]: 26.01
LogK [CaL]/[Ca][L] (stability constant) [6]: 10.75
logKCaL(pH7.4) (conditional stability constant) [6]: 6.43
pCa ([6]; pM = −log[M]free at pH7.4, [M]total = 1 μmol/dm^3, [L]total = 1.1 μmol/dm^3): 5.45
LogK [GdL]/[Gd][L] (stability constant) [7]: 22.46
logKsel(Gd/Ca) (selectivity constant) [7]: 11.71
logKsel(Gd/Cu) (selectivity constant) [7]: 1.08
logKsel(Gd/Zn) (selectivity constant) [7]: 3.76
logKGdL(pH7.4) (conditional stability constant) [7]: 18.14
pGd [7]: 17.14

SMILES: CNC[C@H](O)[C@@H](O)[C@H](O)[C@H](O)CO.CNC[C@H](O)[C@@H](O)[C@H](O)[C@H](O)CO.O=C([O-])CN(CCN(CC(=O)[O-])CC(=O)O)CCN(CC(=O)[O-])CC(=O)O.[Gd+3] [Magnevist, (N-Me-glucamine)2[Gd(DTPA)(H2O)]]
magnetic relaxation rate [8]: about 4.7 mM^−1s^−1

pattern of evolution of the paramagnetic relaxation rate R1P(t)/R1P(0) (in words) [9]: drastic decrease in the rate
SMILES: CNC[C@H](O)[C@@H](O)[C@H](O)[C@H](O)CO.CNC[C@H](O)[C@@H](O)[C@H](O)[C@H](O)CO.O=C([O-])CN(CCN(CC(=O)[O-])CC(=O)O)CCN(CC(=O)O)C(COCc1ccccc1)C(=O)[O-].[Gd+3] (stereo not drawn) [Multihance]
R1 relaxivity [10]: 4.0 ± 0.2 mM⁻¹ s⁻¹
R2 relaxivity [10]: 4.3 ± 0.5 mM⁻¹ s⁻¹
T1 relaxation time [10]: 250.62 ± 12.5 ms
T2 relaxation time [10]: 235 ± 27.4 ms

paramagnetic relaxation rate retained, R1P(t)/R1P(0) (kinetic stability) ([9]; 72 hours, phosphate-buffered solution pH 7.4, 2.5 mmol/L Gd-complex and 2.5 mmol/L ZnCl2, room temperature, 3T): 30%
pattern of evolution of the paramagnetic relaxation rate R1P(t)/R1P(0) (in words) [9]: drastic decrease in the rate
SMILES: CNC(=O)CN(CCN(CCN(CC(=O)[O-])CC(=O)NC)CC(=O)[O-])CC(=O)[O-].[Gd+3] [Omniscan, [Gd(DTPA-bismethylamide)(H2O)]]
magnetic relaxation rate [8]: about 4.4 mM^−1s^−1
R1 relaxivity [10]: 4.9 ± 0.14 mM⁻¹ s⁻¹
R2 relaxivity [10]: 3.4 ± 0.25 mM⁻¹ s⁻¹
T1 relaxation time [10]: 209.8 ± 5.82 ms
T2 relaxation time [10]: 290.9 ± 21.02 ms

pattern of evolution of the paramagnetic relaxation rate R1P(t)/R1P(0) (in words) [9]: drastic decrease in the rate
SMILES: CCOc1ccc(CC(CN(CCN(CC(=O)[O-])CC(=O)[O-])CC(=O)[O-])N(CC(=O)[O-])CC(=O)[O-])cc1.[Gd+3].[Na+].[Na+] (stereo not drawn) [Primovist]
R1 relaxivity [10]: 4.7 ± 0.2 mM⁻¹ s⁻¹
R2 relaxivity [10]: 5.1 ± 0.6 mM⁻¹ s⁻¹
T1 relaxation time [10]: 213.15 ± 9.07 ms
T2 relaxation time [10]: 198.83 ± 23.4 ms
